According to publication PMC12562781 (International Journal of Molecular Sciences, 2025):
Converted amounts (≈) assume the structure as drawn. Like-named read-outs stand apart in the source and are kept apart here.

Assays:
[1] = system: human liver cancer cell lines (HepG2); test: MTT cytotoxicity assay, HepG2 cells; conditions: HepG2, 24 h, read-out: IC50 Values, cytotoxicity, HepG2
Procedure: (§1) The cells were allowed to grow to 90% confluency in an incubator set at 37 °C containing 5% CO2, before they were trypsinized and cultured in 96-well tissue culture plates. Stock and final concentrations of the compounds were prepared in the culture media.
(§2) Just 5 h before the elapse of 24 h, 10 µL of 5 mg/mL MTT solution was added to each well, and the plates were further incubated. At the end of the incubation period, the media was removed from each well and replaced with 50 µL of DMSO. The plates were shaken on a rotating shaker for 10 min before taking readings at 560 nm using a microplate reader (Elisa Plate Reader, BioTek Instruments, Inc., Winooski, VT, USA). […] IC50 values were calculated from the graphs as compound concentrations that reduced the absorbance at 560 nm by 50% of the untreated control wells. To exclude background readings, three wells were seeded with untreated cells in which MTT was not added. Assays were performed in triplicate to ensure reproducibility. The percentage inhibitions of cell proliferation were calculated using the following formula:% Cytotoxicity = ((A − B)/A) × 100 where: A is the absorbance of the negative control (untreated cells). B is the absorbance of the treated cells.
(§3) Data were presented as the cumulative mean of each compound. Each compound was run in triplicate. GraphPad Prism (version 5) was used for statistical analysis of all data. For all the data, one-way analysis of variance (ANOVA) followed by Bonferroni’s multiple comparison tests was used to compare the means of one group with every other group. Statistical significance was set at 5%; thus, a p-value ≤ 0.05 was considered significant. Concentrations that inhibit cell proliferation by 50% (IC50) were calculated using Graphpad Prism 5 software.

HT-29 cells = system: HT-29 cells; set-up: method as in PMID 24658565; conditions: read-out: cytotoxic IC50, HT-29; cited from earlier work
MCF-7 cells = system: MCF-7 cells; set-up: method as in PMID 24658565; conditions: read-out: cytotoxic IC50, MCF-7; cited from earlier work
HeLa cells = system: HeLa cells; set-up: method as in PMID 24658565; conditions: read-out: cytotoxic IC50, HeLa; cited from earlier work
[2] = system: human prostate cancer cell lines (PC3); test: MTT cytotoxicity assay, PC3 cells
Procedure: as §1, §2
Data were presented as the cumulative mean of each compound. Each compound was run in triplicate. GraphPad Prism (version 5) was used for statistical analysis of all data. […]

[3] = system: breast adenocarcinoma cancer cell lines (MDA); test: MTT cytotoxicity assay, MDA cells; conditions: Homo sapiens, 24 h, read-out: IC50 Values, cytotoxicity, MDA
Procedure: as §1, §2, §3

[4] = system: non-cancerous human fibroblast cell lines (KMST-6); test: MTT cytotoxicity assay, KMST-6 cells; assay type: cell-based; conditions: MTT, 24 h, 0.156 µM to 10 µM, triplicate; non-cancerous cells
Procedure: (§4) Assays were performed in triplicate to ensure reproducibility. […] B is the absorbance of the treated cells.
(§5) Each compound was run in triplicate.

MDA-MB-231 = conditions: cited from earlier work
Plasmodium = system: Plasmodium; set-up: method as in PMID 24108397; conditions: cited from earlier work
[5] = system: human breast cancer cells (MDA-MB-231); set-up: method as in PMID 28231262; conditions: cited from earlier work
[6] = MTT cytotoxicity assay, KMST-6 cells; assay type: cell-based, human; conditions: human
Procedure: as §4, §5

HEK293 = system: HEK293; set-up: method as in PMID 24108397; conditions: cited from earlier work
HepG2 = system: HepG2; set-up: method as in PMID 24108397; conditions: cited from earlier work
Plasmodium berghei = system: Plasmodium berghei; set-up: method as in PMID 24108397; conditions: mice; cited from earlier work
Hep-G2 = conditions: cited from earlier work
[7] = system: Vero cells and human liver cancer cells; set-up: method as in earlier work; conditions: cited from earlier work
HL60 cells = system: HL60 cells; set-up: method as in doi:10.1007/s00044-014-1093-y; conditions: cited from earlier work
Funtumia africana = system: Funtumia africana; set-up: method as in earlier work; conditions: cited from earlier work

For `C[C@H]1[C@H](C)CC[C@]2(C(=O)O)CC[C@]3(C)C(=CC[C@@H]4[C@@]5(C)CC[C@H](O)C(C)(C)[C@@H]5CC[C@]43C)[C@H]12` [Compound 1, ursolic acid], the IC50 [1] is listed as 0.261 µM, the IC50 (HT-29 cells) is listed as 10 µM and the IC50 (MCF-7 cells) is listed as 20 µM. For the same compound, the IC50 (HeLa cells) was 10 µM, the IC50 ([2]; read-out: IC50 Values, cytotoxicity, PC3, MTT, 24 h, 0.156 µM to 10 µM, triplicate) was 0.262 µM and the IC50 [3] was over 5 µM. The “IC50 Values, cytotoxicity, KMST-6” value [4] was “ns”, the “concentration that inhibits cell proliferation” value (MDA-MB-231) was at least 160 µg/mL and the “anti-plasmodial IC50” value (Plasmodium) was 6.8 µg/mL.

For `CC1(C)CC[C@]2(C(=O)O)CC[C@]3(C)C(=CC[C@@H]4[C@@]5(C)CC[C@H](O)C(C)(C)[C@@H]5CC[C@]43C)[C@@H]2C1` [Compound 2, oleanolic acid], the IC50 [1] is given as 1.2 µM, the “effect on cell migration” value [5] is given as “clearly enhanced cell migration” and the IC50 [3] is given as 4.48 µM. The IC50 at 24 h ([6]; KMST-6 non-cancerous fibroblast cells, MTT, 24 h, 0.156 µM to 10 µM, triplicate, non-cancerous cells, read-out: IC50 Values, cytotoxicity, KMST-6) was 3.88 µM.

In the case of `CC(=O)O[C@H]1CC[C@]2(C)[C@H]3CC=C4[C@@H]5[C@@H](C)[C@H](C)CC[C@]5(C(=O)O)CC[C@@]4(C)[C@]3(C)CC[C@H]2C1(C)C` [Compound 3, 3-O-acetyl ursolic acid], the IC50 [1] is listed as 0.85 µM, the “cytotoxicity IC50, HEK293” value (HEK293) is listed as 366.00 µg/mL and the “cytotoxicity IC50, HepG2” value (HepG2) is listed as 566.09 µg/mL. For the same compound, the decrease of parasitemia (Plasmodium berghei) was 94.01%, the “cytotoxicity IC50, Hep-G2” value (Hep-G2) was 4.73 µg/mL and the “IC50 Values, cytotoxicity, PC3” value [2] was “ns”. It also gave an IC50 [3] of 3.93 µM and an IC50 at 24 h [6] of 4.88 µM.

In the case of `COC(=O)[C@]12CC[C@@H](C)[C@H](C)[C@H]1C1=CC[C@@H]3[C@@]4(C)CC[C@H](O)C(C)(C)[C@@H]4CC[C@@]3(C)[C@]1(C)CC2` [Compound 4, ursolic-28-methylate], the IC50 [1] is listed as 1.6 µM, the “cytotoxicity IC50” value [7] is listed as 10.4 µg/mL and the IC50 [3] is listed as 2.48 µM. For the same compound, the “ED50, HL60” value (HL60 cells) was 22.7 µg/mL (≈ 48.2 µM), the MIC (Funtumia africana) was 62.5 µg/mL (≈ 133 µM) and the IC50 at 24 h [6] was over 5 µM.

`COC(=O)[C@]12CC[C@@H](C)[C@H](C)C1C1=CCC3[C@@]4(C)CC[C@H](OC(C)=O)C(C)(C)C4CC[C@@]3(C)[C@]1(C)CC2` (some centres unmarked) [Compound 5, 3-acetylursolic-methylate] gave an IC50 [1] of 0.85 µM, an IC50 [3] of 1.9 µM and an IC50 at 24 h [6] of over 5 µM.

In the case of `COC1CCC2(C)C3CCC4(C)C(=CCC5(C)CCC(C)(C)CC54)C3(C)CCC2C1(C)C` (centres unmarked) [sawamilletin], the “anti-plasmodial IC50” value (Plasmodium; unit not given) is listed as over 100.

For `CC1(C)CC[C@]2(C)CC=C3[C@]4(C)CC[C@H]5C(C)(C)[C@@H](O)CC[C@]5(C)[C@H]4CC[C@@]3(C)[C@@H]2C1` [taraxerol], the “anti-plasmodial IC50” value (Plasmodium; unit not given) is listed as over 100.
